Reference: ChEMBL document CHEMBL3301472, “MMV Malaria Box HIV and cytotoxicity screening”

Experiments:
[1] = MMV: MTT Cytotoxicity Assay Day 7 pi of Assay #7 (compound washed out Day 1 pi), U87-CD4-CXCR4 cells, % cell death @ 5mM compound; format: toxicity, cell-based; conditions: human, u87-cd4-cxcr4, 5000 µM
[2] = MMV: MTT Cytotoxicity Assay Day 7 pi of Assay #10 (NO washout), U87-CD4-CCR5 cells, % cell death @ 5mM compound; format: toxicity, cell-based; conditions: human, u87-cd4-ccr5, 5000 µM
[3] = MMV: MTT Cytotoxicity Assay Day 7 pi of Assay #11 (NO washout), U87-CD4-CXCR4 cells, % cell death @ 5mM compound; format: toxicity, cell-based; conditions: human, u87-cd4-cxcr4, 5000 µM
[4] = test system: Human immunodeficiency virus 1; test: MMV: HIV CXCR4-tropic env NL4-3 pseudovirus assay produces luciferase signal in lieu of replicating viral particles Day 3 pi, U87-CD4-CXCR4, % inhibition at 5 mM compound; format: functional; set-up: dose or concentration left out as unconfirmed; conditions: Human immunodeficiency virus 1, NL4-3, U87.CD4.CXCR4, 72 h
[5] = MMV: MTT Cytotoxicity Assay Day 3 pi, U87-CD4-CXCR4 cells, % cell death @ 5mM compound; format: toxicity, cell-based; conditions: human, u87-cd4-cxcr4, 5000 µM
[6] = MMV: MTT Cytotoxicity Assay Day 7 pi of Assay #6 (compound washed out Day 1 pi), U87-CD4-CCR5 cells, % cell death @ 5mM compound; format: toxicity, cell-based; conditions: human, u87-cd4-ccr5, 5000 µM
[7] = MMV: MTT Cytotoxicity Assay Day 3 pi, U87-CD4-CCR5 cells, % cell death @ 5mM compound; format: toxicity, cell-based; conditions: human, u87-cd4-ccr5, 5000 µM
[8] = test system: Human immunodeficiency virus 1; test: MMV: HIV JRFL CCR5-tropic replication-competent virus, NO washout, P24 ELISA Day 7 pi, U87-CD4-CCR5, % inhibition at 5 mM compound; format: functional; set-up: dose or concentration left out as unconfirmed; conditions: Human immunodeficiency virus 1, JR-FL, U87/CD4/CCR5, 168 h

CN(C)CCCNc1c2ccccc2nc2ccccc12
% Cell Death [1]: 15
% Cell Death [2]: 30
% Cell Death [3]: -4
inhibition [4]: 1%
% Cell Death [5]: 21
% Cell Death [6]: 8
% Cell Death [7]: 30
inhibition [8]: 3%

Cc1ccc(C(=O)c2oc3ccc4c(C)cc(=O)oc4c3c2C)cc1
% Cell Death [1]: 22
% Cell Death [2]: 83
% Cell Death [3]: 92
% Cell Death [5]: 94
% Cell Death [6]: 7
% Cell Death [7]: 59
inhibition [8]: 8%

Cc1cc(N(C)C)nc(Nc2ccc(NC(=O)Nc3ccccc3)cc2)n1
% Cell Death [1]: -7
% Cell Death [2]: 18
% Cell Death [3]: -30
% Cell Death [5]: 40
% Cell Death [6]: -5
% Cell Death [7]: 12
inhibition [8]: 4%

CCCc1c(C)nc2ccccc2c1O
% Cell Death [1]: 31
% Cell Death [2]: 18
% Cell Death [3]: 51
inhibition [4]: 9%
% Cell Death [5]: 8
% Cell Death [6]: 22
% Cell Death [7]: 5
inhibition [8]: -2%
